Values of other authors as cited in US20120129696A1, “METHOD FOR INCREASING THE LEVEL OF FREE AMINO ACIDS IN STORAGE TISSUES OF PERENNIAL PLANTS” (priority 2009, published 2012).

Tested on: wheat plants

COC(=O)N(OC)c1ccccc1COc1ccn(-c2ccc(Cl)cc2)n1 [pyraclostrobin]
relative content of protein and C/N-ratios, control compared to treated plants: neither the relative content of protein nor C/N-ratios were different | persistence of enhancement of nitrate reduction (after a single application at rates normally used for fungal control at the field site): 3 nights | nitrite and ammonia in the leaves following application (rates normally used for fungal control at the field site): accumulated
